The values that follow come from patent publication US12280060B2, “Methods of treating cancer using neuronal activity inhibiting agents” (Washington University, priority 2021, dated 2025).

“Also recorded” adds a separate entry of the source.

For one experiment, the system named is Nf1-mutant neurons. Nature of the experiment: Excitability of Nf1-mutant neurons. It counts as cell-based. As to the method:
(§1) Nf1-mutant neurons were treated with the antiepileptic drug rufinamide. Treatment with rufinamide reduced Midkine expression (see e.g., FIG. 47) and neuronal excitability (see e.g., FIG. 48).

The subject of experiment [1] is Midkine. Kind of experiment: Mdk (Midkine transcript) levels in Nf1-mutant neurons. It counts as cell-based. As to the method:
as §1

For experiment [2], the system named is Nf1+/neo and Nf1-OPG mice. Kind of experiment: In vivo treatment: Mdk/midkine, Nlgn3, Adam10 expression in retinae and optic nerves. On the set-up: species or system mouse. To be noted: for effect on midkine expression in the RGC layer of retinae: 12-week-old Nf1-OPG mice, LTR or lovastatin in vivo; for effect on Nlgn3 RNA expression in vivo: retinae / optic nerves of Nf1+/neo or Nf1-OPG mice. The protocol:
Supplementary Table 2) and TaqMan Fast Advanced Master Mix (Applied Biosystems) according to the manufacturer's instructions. All reactions were performed using the Bio-Rad CFX96 Real-Time PCR system equipped with Bio-Rad CFX Manager 3.1 software. Gene expression levels of technical replicates were estimated by ΔΔCt method using GAPDH or Gapdh (see e.g., TABLE 2) as reference genes. In total, 17 Nf1^flox/neo; GFAP-Cre (Nf1-OPG) mice were intraperitoneally administered vehicle (saline in 1% methylcellulose; n=9) or 25 mg/Kg body weight lamotrigine (Selleckchem; n=8) from four to six weeks of age, three times a week. The mice were then aged to 12 weeks for optic nerve and RGC analysis. […] The mice were analyzed at 12 weeks of age. […] These mice were analyzed at 24 weeks of age. […] These mice were analyzed at 12 weeks of age. For pNF analyses, Nf1^−/− DRG-NSCs were implanted in sciatic nerves of 8-week-old athymic nude mice as previously described. Briefly, the mice underwent surgery to create a pocket by displacing the quadriceps muscle and exposing their sciatic nerve. In all, 1×10^6 Nf1^−/− DRG-NSCs were implanted in the pocket around the sciatic nerve, such that the cells could be in direct contact with the nerve before the muscle and skin were sutured. Following recovery from the surgery, the mice were intraperitoneally administered vehicle (saline in 1% methylcellulose; n=5) or 25 mg/kg body weight lamotrigine (Selleckchem; n=5) three times a week for 6 weeks prior to histological analysis.

Experiment [3] deals with midkine. It counts as cell-based, mouse.
The test system of experiment [4] is midkine. It counts as cell-based, mouse. The source holds these as a separate data set.
For experiment [5], the system named is Col1a2. It counts as cell-based, mouse.
In experiment [6] the test system is WT and Nf1+/1809 RGC neurons. It counts as cell-based, mouse.
Experiment [7] concerns human shNF1 Schwann cells. Nature of the experiment: Human shNF1 Schwann cell proliferation (Ki67+). To be noted: shNF1 SCs. It counts as cell-based.
The subject of another experiment is Nf1-/- DRG-NSCs. Kind of experiment: Nf1-/- DRG-NSC proliferation (Ki67+). The experiment is classed as cell-based, mouse.
Experiment [8] deals with Nf1f/neo; hGFAP-Cre (Nf1-OPG) mice. Kind of experiment: In vivo Nf1-OPG (optic pathway glioma) progression. On the set-up: species or system mouse. To be noted: for optic nerve proliferation (% Ki67+ cells), fold decrease: mouse, in vivo.
For experiment [9], the system named is Nf1+/neo hippocampal neurons. It counts as cell-based, mouse.
The test system of the next experiment is RAS. The experiment is classed as cell-based, mouse.
Experiment [10] has as its system NF1-pNFs in athymic nude mice. Nature of the experiment: In vivo pNF progression (Nf1-/- DRG-NSCs implanted in sciatic nerve). On the set-up: species or system mouse.
The test system of the next experiment is Nf1+/neo DRG neurons. It counts as cell-based, mouse.
The subject of a further experiment is Nf1+/neo RGC neurons. It counts as cell-based, mouse.
In another experiment the test system is neurofibromas. The following applies: cited from earlier work.
In experiment [11] the test system is Col1a2. Kind of experiment: COL1A2 RNA expression in mouse Nf1-/- DRG-NSCs. It counts as cell-based. The following applies: COL1A2 treatment.
Experiment [12] has as its system COL1A2. Nature of the experiment: COL1A2 RNA expression in human shNF1 Schwann cells. The experiment is classed as cell-based. To be noted: COL1A2 treatment.
[13] abbreviates: Nf1-OPG mice, LTR 25 mg/kg/day intraperitoneally, vs vehicle.
Where [14] appears, read: Nf1-OPG mice, lamotrigine intraperitoneal, 3 months of age, vs vehicle.
Setting [15] is: 25 mg/kg intraperitoneal three times a week for 6 weeks.
The mark [16] stands for this setting: 25 mg/kg intraperitoneal three times a week for 6 weeks, listed as LTR.

As for `NC(=O)c1cn(Cc2c(F)cccc2F)nn1` [rufinamide], the “effect on neuronal excitability” value in the experiment on Nf1-mutant neurons is on record as “reduces”. Also, the “effect on Mdk (Midkine transcript) levels / Midkine expression” value in the experiment on Midkine [1] is on record as “reduces”.
As to `CC[C@H](C)C(=O)O[C@H]1C[C@@H](C)C=C2C=C[C@H](C)[C@H](CC[C@@H]3C[C@@H](O)CC(=O)O3)[C@H]21` [lovastatin], the “effect on midkine expression in the RGC layer of retinae” value in experiment [2] is reported as “decreased; also recorded: reduced”.
Take ZD7288: the “effect on midkine expression / secretion” value with midkine [3] is “increases”. Moreover, in the experiment with midkine [4], the “RGC neuron midkine production, fold increase” value is 14-15 fold and the “effect on midkine production” value is recorded as “increased”. Besides, in the experiment with Col1a2 [5], the “DRG Col1a2 secretion, fold increase” value is 2-2.8 fold and the “effect on Col1a2 secretion” value was “increases”. Besides, in experiment [6], the “effect on Adam10 transcript expression” value is “did not alter” and the “effect on Nlgn3 transcript expression” value is on record as “did not alter”.
Take collagenase: the “effect on the increase in proliferation conferred by NF1-mutant sensory neuron CM or COL1A2” value (in experiment [7] (collagenase); in the experiment with Nf1-/- DRG-NSCs (collagenase)) was “completely abrogated” each time.
In the case of `Nc1nnc(-c2cccc(Cl)c2Cl)c(N)n1` [lamotrigine], in experiment [8] (setting [13]), the “effect on CD3+ cells in optic nerves” value is given as “reduced”, the “effect on Iba1+ cells in optic nerves” value is “reduced” and the “effect on Ki67+ cells in optic nerves” value is “reduced”. Moreover, the “effect on OPG development” value in experiment [8] (Nf1-OPG mice, at 3 months of age) is listed as “reduced”. In addition, in experiment [8] (Nf1-OPG mice, lamotrigine intraperitoneal, 3 months of age), the “effect on optic nerve volumes” value is on record as “did not decrease”. In [8] (setting [14]), the “T-cell (CD3+ cells) content, fold decrease” value was 1.6 fold and the “microglia (% Iba1+ cells) content, fold decrease” value came out at 1.7 fold. Also, the “optic nerve volumes relative to WT controls, fold increased” value in experiment [8] (lamotrigine-treated Nf1-OPG mice) was found to be 1.5 fold. Also, the “optic nerve proliferation (% Ki67+ cells), fold decrease” value in experiment [8] is given as 1.5 fold. The “optic nerve proliferation (% Ki67+ cells), fold decrease” value in experiment [8] (ip) is reported as 5.7 fold. Further, the “optic nerve proliferation (% Ki67+ cells), fold decrease” value in experiment [8] (po, 10 mg/kg/day) was 4 fold. The “microglia (% Iba1+ cells) content, fold decrease” value in experiment [8] (treatment from 4-8 weeks, 6 month-old Nf1-OPG mice, vs vehicle) worked out at 1.4 fold. Moreover, the “effect on AP firing rates” value in [9] is “reduced”. Also, the “effect on midkine expression / secretion” value in the experiment with midkine [3] was “reduced”. For the same compound, the “effect on RAS activity (RAS-GTP)” value in the experiment on RAS is reported as “reduced”. In addition, in the experiment on midkine [4], the “effect on midkine secretion / expression” value is given as “reduced” and the “midkine levels, fold decrease” value was determined as 2.2 fold. In experiment [10] (setting [15]), the “effect on Col1a2 production / immunoreactivity within the tumors” value is reported as “reduced”, the “effect on neuronal histology (H&E)” value is “partly restored”, the “effect on pNF progression in vivo” value was “decreases” and the “effect on pNF size” value is “reduced”. Further, in [10] (setting [16]), the “effect on Col1a2 production / immunoreactivity within the tumors” value was “decreases”, the “effect on neuronal histology (H&E)” value is on record as “partly restores” and the “effect on pNF size” value is “reduces”. Further, the “effect on proliferation (Ki67+ cells) within the tumors” value in [10] (mouse, in vivo) was “reduces”. Also, the “effect on midkine expression in the RGC layer of retinae” value in [2] is “reduced”. Besides, the “effect on Mdk transcript relative expression in retinae” value in experiment [2] (Nf1+/neo mice, LTR in vivo) is reported as “decreased”. Also, the “Mdk RNA and protein levels in retinae, fold decrease” value in experiment [2] (Nf1+/neo retinae, lamotrigine in vivo, relative to vehicle) is 1.9-2.3 fold. Moreover, the “Mdk levels in optic nerves, fold decrease” value in [2] (optic nerves, lamotrigine in vivo, relative to vehicle) is listed as 1.7-2 fold. Besides, the “effect on Adam10 RNA expression in vivo” value in [2] (retinae / optic nerves of 12 week-old Nf1+/neo or Nf1-OPG mice, lamotrigine in vivo) is “did not change; also recorded: unchanged”. Besides, the “effect on Nlgn3 RNA expression in vivo” value in experiment [2] (lamotrigine in vivo) is “did not change”. Besides, the “effect on Nlgn3 RNA expression in vivo” value in experiment [2] (lamotrigine in vivo, listed as LTR) is given as “unaltered”. Moreover, in the experiment with Nf1+/neo DRG neurons, the “effect on DRG neuron AP firing rate / neuronal activity” value was “reduce”. In addition, in the experiment on Col1a2 [5], the “Col1a2 secretion / expression, fold reduction” value turned out to be 1.8 fold and the “reduction of Col1a2 secretion” value was determined as 47%. Besides, in the experiment on Nf1+/neo RGC neurons, the “effect on AP firing rate / RGC activity” value is “reduced” and the “firing rates, % decrease” value is over 80%.
`Cc1ccc(=O)n(-c2ccccc2)c1` [Pirfenidone]: in the experiment with neurofibromas, the “efficacy in human clinical trials” value is recorded as “no efficacy”.
Regarding `NC1=N[C@H](O)[C@H]2[C@H]3O[C@]4(O)O[C@@H]([C@@H](O)[C@@]2(N1)[C@@H]4O)[C@]3(O)CO` [TTX, tetrodotoxin], the “effect on AP firing rates” value in [9] is given as “reduced”. Besides, the “effect on midkine expression / secretion” value in the experiment with midkine [3] was “reduced”. Besides, in the experiment on RAS, the “effect on RAS activity (RAS-GTP)” value is given as “reduced”. In addition, in the experiment on midkine [4], the “effect on midkine secretion / expression” value is “reduced” and the “midkine levels, fold decrease” value amounted to 1.9 fold. In addition, the “effect on DRG neuron AP firing rate / neuronal activity” value with Nf1+/neo DRG neurons is “reduce”. In the experiment with Col1a2 [5], the “Col1a2 secretion / expression, fold reduction” value is 3.6 fold and the “reduction of Col1a2 secretion” value turned out to be 73%. In addition, in the experiment on Nf1+/neo RGC neurons, the “effect on AP firing rate / RGC activity” value was “reduced” and the “neuronal activity (AP firing rate), fold decrease” value is reported as over 80 fold.
For “COL1A2: collagen-1A2; neurofibroma mitogen produced by peripheral neurons, applied to Schwann cells and DRG-NSCs”, the “effect on COL1A2 RNA expression” value with Col1a2 [11] and in the experiment on COL1A2 [12] was “increased” throughout. Besides, the “proliferation, fold increase in Ki67+ cells” value (in experiment [7] (COL1A2 12.5 μg/mL); in the experiment on Nf1-/- DRG-NSCs (COL1A2 12.5 μg/mL)) was 2.5-2.9 fold throughout.
